According to PubChem BioAssay (NCI):
Values joined by “and” are separate entries in the source; they are usually repeats but may differ in a detail not shown here. Equal entries are not always repeated.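 Five compound concentrations were applied to cells in 96-well plates for 48 hours; endpoints were derived by simple linear interpolation of the resulting dose-response curve. GI50: concentration for 50% inhibition of growth. TGI is the concentration that stops growth completely.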

How the values were obtained:
Assay in all cases: NCI-60 cell line screen, 48 h
RPMI-8226 leukemia = test system: RPMI-8226 leukemia
SK-MEL-28 melanoma = test system: SK-MEL-28 melanoma
KM12 colon = test system: KM12 colon
BT-549 breast = test system: BT-549 breast
NCI-H23 lung = test system: NCI-H23 lung
K-562 leukemia = test system: K-562 leukemia
UO-31 renal = test system: UO-31 renal
CAKI-1 renal = test system: CAKI-1 renal

Row | Structure (SMILES) | GI50 (RPMI-8226 leukemia) [µM] | TGI (RPMI-8226 leukemia) [µM] | GI50 (SK-MEL-28 melanoma) [µM] | TGI (SK-MEL-28 melanoma) [µM] | GI50 (KM12 colon) | TGI (KM12 colon) | GI50 (BT-549 breast) [µM] | TGI (BT-549 breast) [µM] | GI50 (NCI-H23 lung) [µM] | TGI (NCI-H23 lung) [µM] | GI50 (K-562 leukemia) [µM] | TGI (K-562 leukemia) [µM] | GI50 (UO-31 renal) [µM] | TGI (UO-31 renal) [µM] | GI50 (CAKI-1 renal) [µM] | TGI (CAKI-1 renal) [µM]
1 | C=C1C(=O)O[C@H]2[C@H]1CC/C(CNC(=O)/C=C/c1cc(OC)c(OC)c(OC)c1)=C\CC[C@@]1(C)O[C@@H]21 | 1.59 | 5.47 | 1.43 | 3.64 | 7.62 µM | 21.1 µM | 1.51 | 3.95 | 1.58 | 3.58 | 0.601 | 4.13 | 1.55 | 4.08 | – | –
2 | O=c1[nH]nnc2c1ncn2C1OC(CO)C(O)C1O (stereo not given) | 6.71 | > 100 | 68.3 | > 100 | 11.8 µM | > 100 µM | > 100 | > 100 | 14.5 | > 100 | 2.26 | > 100 | 3.18 | > 100 | 0.998 | 32.5
3 | CCOC(=O)Nc1ccc2c(c1)/C(=N\NC(N)=S)c1ccccc1-2 | 2.49 | 12.9 | 4.58 | 17.7 | 3.29 µM | 13.6 µM | 4.24 | 14.3 | 2.95 | 12.6 | 3.94 | > 44.8 | 3.97 | 14.2 | 3.22 | 15.2
4 | COc1ccc2[nH]cc(-c3ccc(-c4c[nH]c5ccc(OC)cc45)s3)c2c1 | 2.83 | 21 | 12.6 | > 50.2 | 2.37 µM | 6.67 µM | 7.44 | 20.9 | 6.36 | 26.2 | 2.54 | 7.3 | 2.9 | 13.5 | 5.54 | 19
5 | C=C1C(=O)O[C@H]2[C@H]1CC/C(COC(=O)CSCSCC(=O)OC/C1=C/CC[C@@]3(C)O[C@H]3[C@H]3OC(=O)C(=C)[C@@H]3CC1)=C\CC[C@@]1(C)O[C@@H]21 | 0.597 | 3.71 | 1.63 | 3.19 | 1.93 µM | 3.77 µM | 1.47 | 2.91 | 1.83 | 4.01 | 0.554 | > 100 | 1.27 | 2.56 | 1.74 | 3.32
6 | O=c1[nH]c(=O)c2cn[nH]c2[nH]1 | > 100 | > 100 | > 100 | > 100 | > 100 µM | > 100 µM | > 100 | > 100 | > 100 | > 100 | > 100 | > 100 | > 100 | > 100 | > 100 | > 100
7 | CC[C@@H]1c2c(C#N)ncn2-c2cnc(Nc3ccc(C(=O)NC4CCN(C5CCN(CC6CC6)CC5)CC4)cc3OC)nc2N1C1CCCC1 | 0.083 | 2.97 | 0.127 | 1.75 | 0.0363 µM and 0.0338 µM | 1.07 µM and 1.05 µM | 0.485 | 1.85 | 0.0374 | 1.38 | 0.0337 | 0.308 | 1.36 | 2.69 | 1.62 | 3.88
